A short description of this data set: Toxicity in Artemia salina. The data set is classed as organism-based. Particulars: in vivo, read-out: LD50 (the source's name).

The structures appear in SMILES notation.

Take `COc1cc2c3c(c1O)C1(C=C(Br)C(=O)C(Br)=C1)C[C@@H]3N(C)CC2` [SALDEDINE A]: the LC50 amounted to 4.4 µM. Take `COc1cc2c3c(c1O)C1(C=C(Br)C(O)C(Br)=C1)C[C@@H]3N(C)CC2` (some centres not stated) [SALDEDINE B]: the LC50 is 10.9 µM.

For the origin of these results see ChEMBL document CHEMBL1151822, “Saldedines A and B, dibromo proaporphine alkaloids from a Madagascan tunicate” (J Nat Prod, 2009).
